For 21 molecules, IC50 and EC50 results are on record in patent US8546443B2, “Benzylic oxindole pyrimidines” (Boehringer Ingelheim International GmbH, priority 2010, dated 2013).

Some results are limits rather than exact numbers.

Assay [1] deals with T1, cytoplasmic kinase domain of human IGF-1R (IGF-1R-GST) (Homo sapiens, UniProt P08069).
T1 construct: cytoplasmic kinase domain of human IGF-1R (amino acids 964-1370); GST (glutathione-S-transferase); made in house; host or cells: High Five insect cells (Invitrogen)
The experiment in a line: Insulin-like growth factor-1 receptor (IGF-1R) kinase assay (DELFIA). The assay is classed as biochemical. The following applies: IGF-1R-GST kinase activity, read-out: IGF1R IC50. The method in brief:
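GST-tagged IGF-1R cytoplasmic kinase domain phosphorylates pEY with biotinylated pEY for 40 min at RT; EDTA stop. Product captured on streptavidin, detected with europium anti-phosphotyrosine antibody by DELFIA time-resolved fluorescence; IC50 from inhibition curves.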

The test system of assay [2] is TC-71 (Ewing's sarcoma) cells. Briefly: Cell proliferation assay, TC-71 (Alamar Blue). The format is cell-based. To be noted: 72 h with compound, EC50 ranges as class symbols. The method in brief:
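TC-71 Ewing's sarcoma cells, 2000/well in IMDM + 10% FCS, attached overnight, then exposed to serial compound dilutions in duplicate for 72 h at 37° C. Viability by Alamar Blue (7 h; fluorescence ex 544/em 590 nm); IC50 from sigmoidal variable-slope fit of normalized data.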

T1 sequence (P08069 964-1367 limits assumed): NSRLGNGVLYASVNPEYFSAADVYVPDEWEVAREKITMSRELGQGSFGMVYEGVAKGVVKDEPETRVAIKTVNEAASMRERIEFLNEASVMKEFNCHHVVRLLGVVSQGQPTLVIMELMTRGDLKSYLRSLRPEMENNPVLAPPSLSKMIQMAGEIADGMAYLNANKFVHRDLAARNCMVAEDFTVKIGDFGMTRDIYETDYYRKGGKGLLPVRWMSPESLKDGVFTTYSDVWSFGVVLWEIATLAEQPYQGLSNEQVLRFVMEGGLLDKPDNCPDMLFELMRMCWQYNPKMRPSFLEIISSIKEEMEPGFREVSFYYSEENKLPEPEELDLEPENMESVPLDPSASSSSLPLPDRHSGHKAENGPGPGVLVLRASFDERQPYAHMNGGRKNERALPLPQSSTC

On to `COc1cc(N2CCN(CC(C)(C)O)CC2)ccc1Nc1ncc(Cl)c(NCc2cccc3c2C(C)(C)C(=O)N3)n1` [Example I-335], for which the 50% inhibitory concentration (IC50) in assay [1] is 3 nM. In assay [2], the EC50 was < 50 nM.

As to `Cc1cc(N2CCN(CC(C)(C)O)CC2)ccc1Nc1ncc(Cl)c(NCc2cccc3c2C(C)(C)C(=O)N3)n1` [Example I-336], in assay [1], the IC50 turned out to be 4 nM. For the same molecule, the EC50 in assay [2] fell in the range of 50 to 250 nM.

Regarding `Cc1cc(Nc2ncc(Cl)c(NCc3cccc4c3C(C)(C)C(=O)N4)n2)c(F)cc1C1CCN(CC(C)(C)O)CC1` [Example I-337], the IC50 in assay [1] was determined as 9 nM. Besides, in assay [2], the half-maximal effective concentration (EC50) fell in the range of 250 to 3000 nM.

On to `Cc1c(Nc2ncc(Cl)c(NCc3cccc4c3C(C)(C)C(=O)N4)n2)ccc(C2CCN(CC(C)(C)O)CC2)c1C` [Example I-339], for which, in assay [1], the IC50 was found to be 2.1 nM. For the same molecule, in assay [2], the EC50 is < 50 nM.

Consider `CC(C)(O)CN1CCC(c2ccc(Nc3ncc(Cl)c(NCc4cccc5c4C(C)(C)C(=O)N5)n3)c(OC(F)(F)F)c2)CC1` [Example I-340], for which the half-inhibitory concentration (IC50) in assay [1] worked out at 11 nM. The EC50 in assay [2] was in the range of 50 to 250 nM.

For the molecule `CC(C)(O)CN1CCC(c2ccc(Nc3ncc(Cl)c(NCc4cccc5c4C(C)(C)C(=O)N5)n3)c3c2OCO3)CC1` [Example I-341], the half-inhibitory concentration (IC50) in assay [1] was found to be 0.9 nM. For the same molecule, the half-maximal effective concentration (EC50) in assay [2] is < 50 nM.

For the molecule `CC(C)(O)CN1CCC(c2ccc(Nc3ncc(Cl)c(NCc4cccc5c4C(C)(C)C(=O)N5)n3)c(OC(F)F)c2)CC1` [Example I-342], the IC50 in assay [1] was 3 nM. Further, the EC50 in assay [2] was < 50 nM.

Take `COCCN1CCC(c2ccc(Nc3ncc(C(F)(F)F)c(NCc4cccc5c4C(C)(C)C(=O)N5)n3)c(C)c2)CC1` [Example I-352]: the IC50 in assay [1] stood at 0.8 nM. Besides, the EC50 in assay [2] is < 50 nM.

Regarding `COCCN1CCN(c2ccc(Nc3ncc(C(F)(F)F)c(NCc4cccc5c4C(C)(C)C(=O)N5)n3)c(OC)c2)CC1` [Example I-353], the IC50 in assay [1] turned out to be 2 nM. Moreover, the 50% effective concentration (EC50) in assay [2] is < 50 nM.

As to `Cc1cc(C2CCN(CCO)CC2)ccc1Nc1ncc(C(F)(F)F)c(NCc2cccc3c2C(C)(C)C(=O)N3)n1` [Example I-355], in assay [1], the IC50 amounted to 0.5 nM. Moreover, the concentration for a half-maximal effect (EC50) in assay [2] was in the range of 250 to 3000 nM.

As to `COCCN1CCC[C@@H](c2ccc(Nc3ncc(Br)c(NCc4cccc5c4C(C)(C)C(=O)N5)n3)c(C)c2)C1` [Example I-362], the IC50 in assay [1] was found to be 0.3 nM. Also, the EC50 in assay [2] was < 50 nM.

Turning to `COCCN1CCC[C@H](c2ccc(Nc3ncc(Br)c(NCc4cccc5c4C(C)(C)C(=O)N5)n3)c(C)c2)C1` [Example I-363], the IC50 in assay [1] worked out at 2 nM. Besides, in assay [2], the EC50 fell in the range of 50 to 250 nM.

As for `CCc1cc(C2CCN(CCOC)CC2)ccc1Nc1ncc(Br)c(NCc2cccc3c2C(C)(C)C(=O)N3)n1` [Example I-367], in assay [1], the IC50 worked out at 3 nM. Also, in assay [2], the EC50 is < 50 nM.

In the case of `COCCN1CCN(c2ccc(Nc3ncc(Br)c(NCc4cccc5c4C(C)(C)C(=O)N5)n3)c(OC)c2)CC1` [Example I-369], the IC50 in assay [1] is 2 nM. Besides, the EC50 in assay [2] was < 50 nM.

As to `COc1cc(C2CCN(CC#N)CC2)ccc1Nc1ncc(Cl)c(NCc2cccc3c2C(C)(C)C(=O)N3)n1` [Example I-374], in assay [1], the IC50 was 11 nM. Besides, in assay [2], the EC50 was 50 to 250 nM.

`Cc1cc(C2CCN(CC#N)CC2)ccc1Nc1ncc(Cl)c(NCc2cccc3c2C(C)(C)C(=O)N3)n1` [Example I-375]: in assay [1], the IC50 turned out to be 9 nM. Further, the EC50 in assay [2] was < 50 nM.

With `COCCN1CCC(c2ccc(Nc3ncc(Cl)c(NCc4cccc5c4C(C)(C)C(=O)N5)n3)cc2C)CC1` [Example I-376], in assay [1], the IC50 is 0.6 nM. In addition, the EC50 in assay [2] was < 50 nM.

As to `Cc1cc(C2CCN(CC(C)(C)O)CC2)ccc1Nc1ncc(Cl)c(NCc2cccc3c2C(C)(C)C(=O)N3)n1` [Example I-377], the 50% inhibitory concentration (IC50) in assay [1] turned out to be 0.9 nM. In addition, the concentration for a half-maximal effect (EC50) in assay [2] is < 50 nM.

As for `CCc1cc(C2CCN(CC(C)(C)O)CC2)ccc1Nc1ncc(Cl)c(NCc2cccc3c2C(C)(C)C(=O)N3)n1` [Example I-378], in assay [1], the IC50 was found to be 6 nM. Also, the EC50 in assay [2] was in the range of 50 to 250 nM.

`CCc1cc(C2CCN(CCOC)CC2)ccc1Nc1ncc(Cl)c(NCc2cccc3c2C(C)(C)C(=O)N3)n1` [Example I-385]: the IC50 in assay [1] was determined as 4 nM. The EC50 in assay [2] lay within 50 to 250 nM.

Regarding `COCCN1CCN(c2ccc(Nc3ncc(Cl)c(NCc4cccc5c4C(C)(C)C(=O)N5)n3)c(OC)c2)CC1` [Example I-386], the IC50 in assay [1] was found to be 3 nM. In assay [2], the EC50 is < 50 nM.
